Results taken from patent US9073930B2, “Dipeptidyl peptidase-IV inhibitors for the treatment or prevention of diabetes” (Merck Sharp & Dohme Corp., priority 2012, dated 2015).

Tests used:
[1] = target: T1, dipeptidyl peptidase-IV enzyme (DPP-4) (Homo sapiens, UniProt P27487); test: Continuous fluorometric DPP-4 inhibition assay with substrate Gly-Pro-AMC; assay type: biochemical; settings: soluble human DPP-4, 50 μM Gly-Pro-AMC, pH 7.5, room temperature
T1 construct: soluble (transmembrane domain and cytoplasmic extension excluded) human protein; made in house; host or cells: baculovirus expression system (Bac-To-Bac, Gibco BRL)
T1 sequence (P27487 29-766 limits assumed): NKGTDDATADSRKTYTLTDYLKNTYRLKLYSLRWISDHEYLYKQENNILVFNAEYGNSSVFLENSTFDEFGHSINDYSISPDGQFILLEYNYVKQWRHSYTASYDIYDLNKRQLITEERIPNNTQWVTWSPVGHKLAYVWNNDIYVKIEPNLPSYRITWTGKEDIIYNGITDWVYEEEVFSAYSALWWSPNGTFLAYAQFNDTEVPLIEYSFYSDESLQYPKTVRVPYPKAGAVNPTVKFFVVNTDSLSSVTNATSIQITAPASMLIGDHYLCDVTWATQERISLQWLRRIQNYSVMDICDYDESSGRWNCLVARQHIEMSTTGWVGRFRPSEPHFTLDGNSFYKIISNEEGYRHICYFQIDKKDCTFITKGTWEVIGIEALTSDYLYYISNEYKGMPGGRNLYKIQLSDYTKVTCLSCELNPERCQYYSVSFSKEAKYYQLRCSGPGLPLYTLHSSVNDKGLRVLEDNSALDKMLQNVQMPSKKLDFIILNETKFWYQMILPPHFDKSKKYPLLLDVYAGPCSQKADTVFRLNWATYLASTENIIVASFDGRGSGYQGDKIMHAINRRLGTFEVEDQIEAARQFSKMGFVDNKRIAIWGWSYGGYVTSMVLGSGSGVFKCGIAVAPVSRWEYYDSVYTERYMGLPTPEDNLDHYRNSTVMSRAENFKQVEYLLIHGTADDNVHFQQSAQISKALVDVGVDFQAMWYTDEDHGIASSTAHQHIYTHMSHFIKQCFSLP
Description: Inhibition constants are determined as follows. A continuous fluorometric assay is employed with the substrate Gly-Pro-AMC, which is cleaved by DPP-4 to release the fluorescent AMC leaving group. The kinetic parameters that describe this reaction are as follows: Km=50 μM; kcat=75 s^−1; kcat/Km=1.5×10^6 M^−1 s^−1. A typical reaction contains approximately 50 pM enzyme, 50 μM Gly-Pro-AMC, and buffer (100 mM HEPES, pH 7.5, 0.1 mg/ml BSA) in a total reaction volume of 100 μL. Liberation of AMC is monitored continuously in a 96-well plate fluorometer using an excitation wavelength of 360 nm and an emission wavelength of 460 nm. Under these conditions, approximately 0.8 μM AMC is produced in 30 minutes at 25 degrees C. The enzyme used in these studies was soluble (transmembrane domain and cytoplasmic extension excluded) human protein produced in a baculovirus expression system (Bac-To-Bac, Gibco BRL). […] To measure the dissociation constants for compounds, solutions of inhibitor in DMSO were added to reactions containing enzyme and substrate (final DMSO concentration is 1%). All experiments were conducted at room temperature using the standard reaction conditions described above. To determine the dissociation constants (Ki), reaction rates were fit by non-linear regression to the Michaelis-Menton equation for competitive inhibition. […]

hematopoiesis = settings: mouse model of cyclophosphamide-induced neutropenia; WO 99/56753; cited from earlier work
DPP-4 = DPP-4 (Homo sapiens, UniProt P27487); settings: cited from earlier work
Sequence of DPP-4 (P27487 whole entry, species assumed): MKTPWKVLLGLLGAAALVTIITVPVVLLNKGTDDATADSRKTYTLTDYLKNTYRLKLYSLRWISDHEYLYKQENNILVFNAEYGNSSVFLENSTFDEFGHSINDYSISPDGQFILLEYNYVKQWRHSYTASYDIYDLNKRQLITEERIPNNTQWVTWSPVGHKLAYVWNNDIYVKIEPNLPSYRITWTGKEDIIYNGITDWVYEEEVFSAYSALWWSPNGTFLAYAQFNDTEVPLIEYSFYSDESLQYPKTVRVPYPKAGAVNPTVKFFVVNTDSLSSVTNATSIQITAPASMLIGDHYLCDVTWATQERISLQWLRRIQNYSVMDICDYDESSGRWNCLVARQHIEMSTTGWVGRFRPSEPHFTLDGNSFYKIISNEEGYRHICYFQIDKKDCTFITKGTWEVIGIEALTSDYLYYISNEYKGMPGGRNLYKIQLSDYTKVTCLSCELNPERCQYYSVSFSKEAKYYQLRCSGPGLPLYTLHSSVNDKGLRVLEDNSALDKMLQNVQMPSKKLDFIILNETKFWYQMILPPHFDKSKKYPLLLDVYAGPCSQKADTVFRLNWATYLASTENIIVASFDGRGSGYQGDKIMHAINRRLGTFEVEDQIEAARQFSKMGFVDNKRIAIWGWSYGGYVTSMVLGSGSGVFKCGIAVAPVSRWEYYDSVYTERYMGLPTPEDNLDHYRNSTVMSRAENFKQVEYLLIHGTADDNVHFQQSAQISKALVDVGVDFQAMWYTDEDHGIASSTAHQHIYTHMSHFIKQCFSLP

| IC50 [1] [nM] | SMILES | other results |
| --- | --- | --- |
| 90 | CS(=O)(=O)n1cc2c(n1)CN([C@H]1CO[C@H](c3sccc3F)[C@@H](N)C1)C2 (racemic) [Example 1] |  |
| 100 | CS(=O)(=O)n1cc2c(n1)CN([C@H]1CO[C@H](c3cc(F)cnc3F)[C@@H](N)C1)C2 [Example 2] |  |
|  | CC(C)[C@H](N)C(=O)N1CCC[C@H]1B(O)O [Val-Boro-Pro] | hematopoiesis (hematopoiesis): stimulated hematopoiesis |
|  | CC[C@H](C)[C@H](N)C(=O)N1CCC[C@H]1C(=O)N[C@H](C(=O)O)[C@@H](C)CC [diprotin A] | degradation of GRF in plasma to GRF[3-44] (DPP-4): prevented |
